Legend:
[1] = tested on: Pigweed, Redroot; experiment: Test A preemergence; type: in vivo, Amaranthus retroflexus; settings: 1000 g ai/ha, 0 to 100 scale (0 no effect, 100 complete control), 10 days
Source text: (§1) Seeds of plant species selected from barnyardgrass (Echinochloa crusgalli), blackgrass (Alopecurus myosuroides), corn (Zea mays), foxtail, giant (giant foxtail, Setaria faberi), goosegrass (Eleusine indica), kochia (Bassia scoparia), oat, wild (wild oat, Avena fatua), pigweed, palmer (palmer amaranth, palmer pigweed, Amaranthus palmeri), Pigweed, Redroot (redroot pigweed, Amaranthus retroflexus), ragweed (common ragweed, Ambrosia artemisiifolia), ryegrass, Italian (italian ryegrass, Lolium multiflorum), soybean (Glycine max), and wheat (Triticum aestivum) were planted into a blend of loam soil and sand and treated preemergence with a directed soil spray using test chemicals formulated in a non-phytotoxic solvent mixture which included a surfactant. At the same time, plants selected from these crops and weed species and also galium (catchweed bedstraw, Galium aparine) and horseweed (Erigeron canadensis) were planted in pots containing the same blend of loam soil and sand and treated with postemergence applications of test chemicals formulated in the same manner. Plants ranged in height from 2 to 10 cm and were in the one- to two-leaf stage for the postemergence treatment. Treated plants and untreated controls were maintained in a greenhouse for 10 days, after which time all treated plants were compared to untreated controls and visually evaluated for injury. Plant response ratings, summarized in Table A, are based on a 0 to 100 scale where 0 is no effect and 100 is complete control. A dash (-) response means no test result.

[2] = tested on: ragweed; experiment: Test A preemergence; type: in vivo, Ambrosia artemisiifolia; settings: 1000 g ai/ha, 0 to 100 scale (0 no effect, 100 complete control), 10 days
In short: (§2)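 Visual injury ratings on a 0–100 scale (100 = complete control) versus untreated controls, taken 10 days after treatment in greenhouse. Preemergence: directed soil spray onto seeded loam/sand. Postemergence: foliar application at one- to two-leaf stage, plants 2–10 cm. Formulation: non-phytotoxic solvent plus surfactant.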

[3] = tested on: foxtail, giant; experiment: Test A preemergence; type: in vivo, Setaria faberi; settings: 1000 g ai/ha, 0 to 100 scale (0 no effect, 100 complete control), 10 days
In short: as §2

[4] = tested on: barnyardgrass; experiment: Test A preemergence; type: in vivo, Echinochloa crusgalli; settings: 1000 g ai/ha, 0 to 100 scale (0 no effect, 100 complete control), 10 days
In short: as §2

[5] = tested on: kochia; experiment: Test A preemergence; type: in vivo, Bassia scoparia; settings: 1000 g ai/ha, 0 to 100 scale (0 no effect, 100 complete control), 10 days
In short: as §2

[6] = tested on: ryegrass, Italian; experiment: Test A preemergence; type: in vivo, Lolium multiflorum; settings: 1000 g ai/ha, 0 to 100 scale (0 no effect, 100 complete control), 10 days
In short: as §2

[7] = tested on: corn; experiment: Test A postemergence; type: in vivo, Zea mays; settings: 1000 g ai/ha, Postemergence; 0 to 100 scale
In short: as §2

[8] = tested on: blackgrass; experiment: Test A postemergence; type: in vivo, Alopecurus myosuroides; settings: 1000 g ai/ha, Postemergence; 0 to 100 scale
In short: as §2

[9] = tested on: kochia; experiment: Test A postemergence; type: in vivo, Bassia scoparia; settings: 1000 g ai/ha, Postemergence; 0 to 100 scale
In short: as §2

[10] = tested on: wheat; experiment: Test A postemergence; type: in vivo, Triticum aestivum; settings: 1000 g ai/ha, Postemergence; 0 to 100 scale
In short: as §2

[11] = tested on: foxtail, giant; experiment: Test A postemergence; type: in vivo, Setaria faberi; settings: 1000 g ai/ha, Postemergence; 0 to 100 scale
In short: as §2

[12] = tested on: ragweed; experiment: Test A postemergence; type: in vivo, Ambrosia artemisiifolia; settings: 1000 g ai/ha, Postemergence; 0 to 100 scale
In short: as §2

[13] = tested on: barnyardgrass; experiment: Test A postemergence; type: in vivo, Echinochloa crusgalli; settings: 1000 g ai/ha, Postemergence; 0 to 100 scale
In short: as §2

[14] = tested on: ryegrass, Italian; experiment: Test A postemergence; type: in vivo, Lolium multiflorum; settings: 1000 g ai/ha, Postemergence; 0 to 100 scale
In short: as §2

[15] = tested on: Pigweed, Redroot; experiment: Test A postemergence; type: in vivo, Amaranthus retroflexus; settings: 1000 g ai/ha, Postemergence; 0 to 100 scale
Source text: as §1

[16] = tested on: rice; experiment: Test B flooded paddy test; type: in vivo, Oryza sativa; settings: 250 g ai/ha, Flood, 13 days, 0 to 100 scale (0 no effect, 100 complete control)
In short: (§3)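 Each species was raised to the 2-leaf stage. At treatment, each pot received floodwater 3 cm deep, with the chemical delivered into the water. Greenhouse holding followed for 13 days, then percent control was estimated visually versus untreated pots.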

[17] = tested on: ducksalad; experiment: Test B flooded paddy test; type: in vivo, Heteranthera limosa; settings: 250 g ai/ha, Flood, 13 days, 0 to 100 scale (0 no effect, 100 complete control)
In short: as §3

[18] = tested on: barnyardgrass; experiment: Test B flooded paddy test; type: in vivo, Echinochloa crus-galli; settings: 250 g ai/ha, Flood, 13 days, 0 to 100 scale (0 no effect, 100 complete control)
In short: as §3

[19] = tested on: sedge, umbrella; experiment: Test B flooded paddy test; type: in vivo, Cyperus difformis; settings: 250 g ai/ha, Flood, 13 days, 0 to 100 scale (0 no effect, 100 complete control)
In short: as §3

CCC1CN(C(=O)c2ccnc(-n3cncn3)c2)c2cc(Cl)ccc2O1 (stereo not shown) [Compound 12]
Plant response rating, Pigweed, Redroot [1]: 0 | Plant response rating, Ragweed [2]: 0 | Plant response rating, Foxtail, Giant [3]: 20 | Plant response rating, Barnyardgrass [4]: 0 | Plant response rating, Kochia [5]: 0 | Plant response rating, Ryegrass, Italian [6]: 0

CC1CN(C(=O)c2cccc(-n3cncn3)c2)c2ccc(F)cc2O1 (stereo not shown) [Compound 23]
Plant response rating, Pigweed, Redroot [1]: 0 | Plant response rating, Corn [7]: 30 | Plant response rating, Ragweed [2]: 0 | Plant response rating, Blackgrass [8]: 30 | Plant response rating, Foxtail, Giant [3]: 50 | Plant response rating, Kochia [9]: 10 | Plant response rating, Barnyardgrass [4]: 30 | Plant response rating, Wheat [10]: 20 | Plant response rating, Foxtail, Giant [11]: 10 | Plant response rating, Ragweed [12]: 20 | Plant response rating, Kochia [5]: 0 | Plant response rating, Ryegrass, Italian [6]: 30 | Plant response rating, Barnyardgrass [13]: 10 | Plant response rating, Ryegrass, Italian [14]: 0 | Plant response rating, Pigweed, Redroot [15]: 0

CC1CN(C(=O)c2ccnc(-n3cncn3)c2)c2cccc(Cl)c2O1 (stereo not shown) [Compound 1]
Plant response rating, Pigweed, Redroot [1]: 40 | Plant response rating, Ragweed [2]: 80 | Plant response rating, Foxtail, Giant [3]: 100 | Plant response rating, Barnyardgrass [4]: 80 | Plant response rating, Rice [16]: 0 | Plant response rating, Kochia [5]: 40 | Plant response rating, Ducksalad [17]: 0 | Plant response rating, Ryegrass, Italian [6]: 90 | Plant response rating, Barnyardgrass [18]: 0 | Plant response rating, Sedge, Umbrella [19]: 0

CCC1CN(C(=O)c2ccnc(-n3cncn3)c2)c2cccc(C)c2O1 (stereo not shown) [Compound 11]
Plant response rating, Pigweed, Redroot [1]: 90 | Plant response rating, Ragweed [2]: 0 | Plant response rating, Foxtail, Giant [3]: 100 | Plant response rating, Barnyardgrass [4]: 30 | Plant response rating, Kochia [5]: 0 | Plant response rating, Ryegrass, Italian [6]: 50

CC1CN(C(=O)c2cccc(-n3cncn3)c2)c2ccccc2O1 (stereo not shown) [Compound 31]
Plant response rating, Pigweed, Redroot [1]: 0 | Plant response rating, Corn [7]: 30 | Plant response rating, Ragweed [2]: 20 | Plant response rating, Blackgrass [8]: 50 | Plant response rating, Foxtail, Giant [3]: 100 | Plant response rating, Kochia [9]: 20 | Plant response rating, Barnyardgrass [4]: 80 | Plant response rating, Wheat [10]: 40 | Plant response rating, Foxtail, Giant [11]: 80 | Plant response rating, Ragweed [12]: 0 | Plant response rating, Kochia [5]: 30 | Plant response rating, Ryegrass, Italian [6]: 90 | Plant response rating, Barnyardgrass [13]: 30 | Plant response rating, Ryegrass, Italian [14]: 70 | Plant response rating, Pigweed, Redroot [15]: 0

CCC1CN(C(=O)c2ccnc(-n3cncn3)c2)c2cccc(Br)c2O1 (stereo not shown) [Compound 13]
Plant response rating, Pigweed, Redroot [1]: 50 | Plant response rating, Ragweed [2]: 0 | Plant response rating, Foxtail, Giant [3]: 90 | Plant response rating, Barnyardgrass [4]: 0 | Plant response rating, Kochia [5]: 60 | Plant response rating, Ryegrass, Italian [6]: 30

CCC1CN(C(=O)c2ccnc(-n3cncn3)c2)c2cccc(F)c2O1 (stereo not shown) [Compound 15]
Plant response rating, Pigweed, Redroot [1]: 90 | Plant response rating, Ragweed [2]: 0 | Plant response rating, Foxtail, Giant [3]: 100 | Plant response rating, Barnyardgrass [4]: 60 | Plant response rating, Kochia [5]: 60 | Plant response rating, Ryegrass, Italian [6]: 60

CC1CN(C(=O)c2cccc(-n3cncn3)c2)c2cc(F)ccc2O1 (stereo not shown) [Compound 24]
Plant response rating, Pigweed, Redroot [1]: 0 | Plant response rating, Corn [7]: 10 | Plant response rating, Ragweed [2]: 0 | Plant response rating, Blackgrass [8]: 60 | Plant response rating, Foxtail, Giant [3]: 30 | Plant response rating, Kochia [9]: 10 | Plant response rating, Barnyardgrass [4]: 50 | Plant response rating, Wheat [10]: 30 | Plant response rating, Foxtail, Giant [11]: 50 | Plant response rating, Ragweed [12]: 0 | Plant response rating, Kochia [5]: 0 | Plant response rating, Ryegrass, Italian [6]: 100 | Plant response rating, Barnyardgrass [13]: 30 | Plant response rating, Ryegrass, Italian [14]: 60 | Plant response rating, Pigweed, Redroot [15]: 0

— patent US20260262643A1, “HERBICIDAL BENZOXAZINES” (FMC CORPORATION, priority 2022, published 2026)
